Measurements published in PubChem BioAssay AID1259407 (Chemical Carcinogenesis Research Information System (CCRIS), 2018).
The source made the active and inactive calls. How the calls were made is not given here.

Tested on: CCRIS mutagenicity, Ames/micronucleus/aberration tests
Assay: CCRIS mutagenicity studies
Excerpt: The CCRIS database contains chemical records with carcinogenicity, mutagenicity, tumor promotion, and tumor inhibition test results. It was developed by the National Cancer Institute (NCI). Data are derived from studies cited in primary journals, current awareness tools, NCI reports, and other sources. Test results have been reviewed by experts in carcinogenesis and mutagenesis.
CCRIS provides historical information from the years 1985 - 2011. It is no longer updated.
This is an archive assay for CCRIS mutagenicity studies.

CCOC(=O)CC(=O)CCl
mutagenic call (Test System: AMES SALMONELLA TYPHIMURIUM, Strain/Indicator: TA98, Metabolic Activation: HAMSTER, LIVER, S-9, AROCLOR 1254, Method: STANDARD PLATE): inactive; negative | mutagenic call (Test System: AMES SALMONELLA TYPHIMURIUM, Strain/Indicator: TA98, Metabolic Activation: NONE, Method: STANDARD PLATE): inactive; negative | mutagenic call (Test System: AMES SALMONELLA TYPHIMURIUM, Strain/Indicator: TA98, Metabolic Activation: RAT, LIVER, S-9, AROCLOR 1254, Method: STANDARD PLATE): inactive; negative | mutagenic call (Test System: AMES SALMONELLA TYPHIMURIUM, Strain/Indicator: TA100, Metabolic Activation: HAMSTER, LIVER, S-9, AROCLOR 1254, Method: STANDARD PLATE): inactive; negative | mutagenic call (Test System: AMES SALMONELLA TYPHIMURIUM, Strain/Indicator: TA100, Metabolic Activation: NONE, Method: STANDARD PLATE): inactive; negative | mutagenic call (Test System: AMES SALMONELLA TYPHIMURIUM, Strain/Indicator: TA100, Metabolic Activation: RAT, LIVER, S-9, AROCLOR 1254, Method: STANDARD PLATE): inactive; negative | mutagenic call (Test System: AMES SALMONELLA TYPHIMURIUM, Strain/Indicator: TA1535, Metabolic Activation: HAMSTER, LIVER, S-9, AROCLOR 1254, Method: STANDARD PLATE): inactive; negative | mutagenic call (Test System: AMES SALMONELLA TYPHIMURIUM, Strain/Indicator: TA1535, Metabolic Activation: NONE, Method: STANDARD PLATE): inactive; negative | mutagenic call (Test System: AMES SALMONELLA TYPHIMURIUM, Strain/Indicator: TA1535, Metabolic Activation: RAT, LIVER, S-9, AROCLOR 1254, Method: STANDARD PLATE): inactive; negative | mutagenic call (Test System: AMES SALMONELLA TYPHIMURIUM, Strain/Indicator: TA1537, Metabolic Activation: HAMSTER, LIVER, S-9, AROCLOR 1254, Method: STANDARD PLATE): inactive; negative | mutagenic call (Test System: AMES SALMONELLA TYPHIMURIUM, Strain/Indicator: TA1537, Metabolic Activation: NONE, Method: STANDARD PLATE): inactive; negative | mutagenic call (Test System: AMES SALMONELLA TYPHIMURIUM, Strain/Indicator: TA1537, Metabolic Activation: RAT, LIVER, S-9, AROCLOR 1254, Method: STANDARD PLATE): inactive; negative | mutagenic call (Test System: AMES SALMONELLA TYPHIMURIUM, Strain/Indicator: TA1538, Metabolic Activation: HAMSTER, LIVER, S-9, AROCLOR 1254, Method: STANDARD PLATE): inactive; negative | mutagenic call (Test System: AMES SALMONELLA TYPHIMURIUM, Strain/Indicator: TA1538, Metabolic Activation: NONE, Method: STANDARD PLATE): inactive; negative | mutagenic call (Test System: AMES SALMONELLA TYPHIMURIUM, Strain/Indicator: TA1538, Metabolic Activation: RAT, LIVER, S-9, AROCLOR 1254, Method: STANDARD PLATE): inactive; negative | mutagenic call (Test System: MOUSE LYMPHOMA, Strain/Indicator: L5178Y (TK+/TK-), Metabolic Activation: NONE, Method: SUSPENSION/PLATE): active; positive. reevaluation of results: positive | mutagenic call (Test System: MOUSE LYMPHOMA, Strain/Indicator: L5178Y (TK+/TK-), Metabolic Activation: RAT, LIVER, S-9, AROCLOR 1254, Method: SUSPENSION/PLATE): active; positive. reevaluation of results: positive
